How the values were obtained:
[1] = test system: ischemia induced by middle cerebral artery occlusion (MCAO); assay: Pretreatment with estrogen compounds before middle cerebral artery occlusion (MCAO) in ovariectomized rats: mortality and ischemic area; format: in vivo, rat; details: for reduction of ischemic area: 5 mm Silastic tube 24 h prior to MCAO
[2] = test system: Primary rat brain capillary endothelial cells (BCEC); assay: Brain capillary endothelial cell (BCEC) mortality under hypoglycemia, Trypan blue; details: 2 nM
Description: The control consists of the ethanol vehicle only. The glucose concentrations in the cell media were adjusted from 20 mg % to 200 mg % by adding appropriate amount of D-(+)-glucose to the glucose-free media. BCEC were incubated for 24 hours (a) and 48 hours (b). Trypan blue staining was used to distinguish live cells from dead cells. Two cell countings at two different hemacytometer squares were averaged. Mean±SEM are depicted (n=8-12). *p<0.05 vs. corresponding vehicle control.
(§1) Primary rat brain capillary endothelial cells (BCEC) cultures were prepared following the method of Goldstein, J. Neurochemistry vol.
Hypoglycemia experiments were undertaken. […] The glucose concentration of the culture media was then adjusted from 20 mg % to 200 mg % by adding appropriate amount of D-(+)-glucose to the glucose-free media and monitored by Glucose and L-Lactate Analyzer (YSI model 2300 STAT plus, YSI, Inc., Yellow Springs, Ohio). The hypoglycemic cultures were maintained for 24 hours or 48 hours prior to staining with Trypan blue.
(§2) Cell mortality was counted using Trypan blue staining method. Cell death percentage was calculated as dead cell/alive cell ×100%.
(§3) Statistical treatment included two-way analysis of variance applied to determine the significance of the difference among the experimental groups. Kruskal-Wallis nonparametric analysis was used for data presented as percentage. […] P<0.05 was considered significant.

[3] = test system: ischemia induced by middle cerebral artery occlusion (MCAO); assay: Post-treatment at 0.5, 1, 2, 3 and 4 hours after MCAO: ischemic lesion volume by TTC staining; format: in vivo, rat; details: iv 100 μg/kg HPCD-complexed 17β-estradiol plus Silastic pellet at 0.5, 1, 2 or 3 hours post-occlusion; 48 hours after MCAO
[4] = test system: Primary rat brain capillary endothelial cells (BCEC); assay: BCEC mortality under combined anoxia and hypoglycemia, Trypan blue; details: 2 nM; 100 mg % glucose; anoxia 2 hours
Description: Cell media contained 200 mg % or 100 mg % glucose. Culture dishes containing BCEC were placed in either an incubator or a nitrogen filled chamber for two hours. Trypan blue staining was used to distinguish live cells from dead cells. Two cell countings at two different hemacytometer squares were averaged. Mean ±SEM are depicted (n=8.12). *<0.05 vs. corresponding vehicle control.
as §1
Nitrogen gas was influxed to replace the oxygen inside the chamber. The chamber was sealed and placed in the incubator for four hours for nonhypoglycemic cultures and 2 hours for hypoglycemic cultures.
as §2, §3

SMILES	reduction of ischemic area ([1]; slice C) [%]	reduction of ischemic area ([1]; slice D) [%]	reduction of ischemic area ([1]; slice E) [%]	protective effect in tissue slices (FIG. 3) ([1]; sustained subcutaneous delivery initiated 24 hours prior to ischemic event, slices A-E)	cell loss saved compared with control ([2]; media glucose 20 mg %) [%]	cell loss saved compared with control ([2]; media glucose 40 mg %) [%]	cell loss saved compared with control ([2]; media glucose 100 mg %) [%]	protection, ischemic lesion volume (TTC staining) [3]	ischemic area, percent of cross-sectional area of brain sections ([1]; pretreatment 24 h prior to MCAO, 3 brain slices, sham 25.6±5.7%) [%]	protective effect in tissue slices (FIG. 2) ([1]; sc injection two hours prior to ischemic event, slices A-D)	protection from cumulative effect of hypoglycemia and anoxia [4]
C[C@]12CC[C@@H]3c4ccc(O)cc4CC[C@H]3[C@@H]1CC[C@H]2O [17α-estradiol]	55	66	81	significant protective effect							
C[C@]12CC[C@@H]3c4ccc(O)cc4CC[C@H]3[C@@H]1CC[C@@H]2O [17β-estradiol]					23	28.4	35.9	significant protection	9.8±4.0	significant protective effect	effective in protecting
